# According to PubChem BioAssay AID1963856 (Molecular Pharmacology Branch, DTP, NCI, 2024):
# Tested on: LG0567-F671-PDC KRAS tumor spheroid viability
# Assay: Anticancer human tumor LG0567-F671-PDC patient-derived lung adenocarcinoma cell line growth inhibition [KRAS2]
# Conditions: spheroids with HUVEC and MSC; for IC50: curve of first compound; for viability, T/C: stronger effect = lower value
# Summary of the method: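 KRAS-mutant tumor cells were grown as spheroids with HUVEC endothelial cells and human MSCs as stroma. Targeted agents were tested alone and with KRAS pathway inhibitors. Doses started at or near clinical Cmax, or 10 microM, descending half-log.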
# [1] = second compound 0.0316 µM, first compound 0.000316 µM
# [2] = second compound 0.0316 µM, first compound 0.001 µM
# [3] = second compound 0.0316 µM, first compound 0.00316 µM
# [4] = second compound 0.0316 µM, first compound 0.01 µM
# [5] = second compound 0.0316 µM, first compound 0.0316 µM
# [6] = second compound 0.1 µM, first compound 0.000316 µM
# [7] = second compound 0.1 µM, first compound 0.001 µM
# [8] = second compound 0.1 µM, first compound 0.00316 µM
# [9] = second compound 0.1 µM, first compound 0.01 µM
# [10] = second compound 0.1 µM, first compound 0.0316 µM
# [11] = second compound 0.316 µM, first compound 0.000316 µM
# [12] = second compound 0.316 µM, first compound 0.001 µM
# [13] = second compound 0.316 µM, first compound 0.00316 µM
# [14] = second compound 0.316 µM, first compound 0.01 µM
# [15] = second compound 0.316 µM, first compound 0.0316 µM
# [16] = second compound 1 µM, first compound 0.000316 µM
# [17] = second compound 1 µM, first compound 0.001 µM
# [18] = second compound 1 µM, first compound 0.00316 µM
# [19] = second compound 1 µM, first compound 0.01 µM
# [20] = second compound 1 µM, first compound 0.0316 µM
# [21] = second compound 3.16 µM, first compound 0.000316 µM
# [22] = second compound 3.16 µM, first compound 0.001 µM
# [23] = second compound 3.16 µM, first compound 0.00316 µM
# [24] = second compound 3.16 µM, first compound 0.01 µM
# [25] = second compound 3.16 µM, first compound 0.0316 µM
# [26] = second compound 0.0316 µM, first compound 0.1 µM
# [27] = second compound 0.1 µM, first compound 0.1 µM
# [28] = second compound 0.316 µM, first compound 0.1 µM
# [29] = second compound 1 µM, first compound 0.1 µM
# [30] = second compound 3.16 µM, first compound 0.1 µM
# [31] = second compound 0.0316 µM, first compound 0.316 µM
# [32] = second compound 0.0316 µM, first compound 1 µM
# [33] = second compound 0.0316 µM, first compound 3.16 µM
# [34] = second compound 0.0316 µM, first compound 10 µM
# [35] = second compound 0.1 µM, first compound 0.316 µM
# [36] = second compound 0.1 µM, first compound 1 µM
# [37] = second compound 0.1 µM, first compound 3.16 µM
# [38] = second compound 0.1 µM, first compound 10 µM
# [39] = second compound 0.316 µM, first compound 0.316 µM
# [40] = second compound 0.316 µM, first compound 1 µM
# [41] = second compound 0.316 µM, first compound 3.16 µM
# [42] = second compound 0.316 µM, first compound 10 µM
# [43] = second compound 1 µM, first compound 0.316 µM
# [44] = second compound 1 µM, first compound 1 µM
# [45] = second compound 1 µM, first compound 3.16 µM
# [46] = second compound 1 µM, first compound 10 µM
# [47] = second compound 3.16 µM, first compound 0.316 µM
# [48] = second compound 3.16 µM, first compound 1 µM
# [49] = second compound 3.16 µM, first compound 3.16 µM
# [50] = second compound 3.16 µM, first compound 10 µM
# 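Further: drug exposure lasted seven days after spheroids formed for three days.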
# 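Wherever viability, T/C is given: 100% = DMSO vehicle control viability.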
smiles,measurement,setting,value
CC(=O)Nc1cccc(-n2c(=O)n(C3CC3)c(=O)c3c(Nc4ccc(I)cc4F)n(C)c(=O)c(C)c32)c1 + C=CC(=O)N1CCN(c2nc(OCC3CCCN3C)nc3c2CCN(c2cccc4cccc(C)c24)C3)CC1CC#N,IC50,second compound 0.0316 µM,< 0.1 nM
same,IC50,second compound 0.1 µM,< 0.1 nM
same,IC50,second compound 0.316 µM,< 0.1 nM
same,IC50,second compound 1 µM,< 0.1 nM
same,IC50,second compound 3.16 µM,< 0.1 nM
same,"viability, T/C","second compound 0.0316 µM, first compound 0.0001 µM",36.6%
same,"viability, T/C",[1],35.6%
same,"viability, T/C",[2],34.5%
same,"viability, T/C",[3],42%
same,"viability, T/C",[4],24.2%
same,"viability, T/C",[5],7.65%
same,"viability, T/C","second compound 0.1 µM, first compound 0.0001 µM",23.8%
same,"viability, T/C",[6],32.3%
same,"viability, T/C",[7],56.4%
same,"viability, T/C",[8],24.6%
same,"viability, T/C",[9],12.1%
same,"viability, T/C",[10],4.09%
same,"viability, T/C","second compound 0.316 µM, first compound 0.0001 µM",30%
same,"viability, T/C",[11],33.2%
same,"viability, T/C",[12],39.7%
same,"viability, T/C",[13],22.1%
same,"viability, T/C",[14],19.3%
same,"viability, T/C",[15],5.95%
same,"viability, T/C","second compound 1 µM, first compound 0.0001 µM",38.2%
same,"viability, T/C",[16],37.5%
same,"viability, T/C",[17],23.7%
same,"viability, T/C",[18],31.7%
same,"viability, T/C",[19],15.7%
same,"viability, T/C",[20],6.26%
same,"viability, T/C","second compound 3.16 µM, first compound 0.0001 µM",30.8%
same,"viability, T/C",[21],22.8%
same,"viability, T/C",[22],12.8%
same,"viability, T/C",[23],12%
same,"viability, T/C",[24],2.28%
same,"viability, T/C",[25],4.58%
CN(C)C/C=C/C(=O)Nc1cc2c(Nc3ccc(F)c(Cl)c3)ncnc2cc1O[C@H]1CCOC1 + C=CC(=O)N1CCN(c2nc(OCC3CCCN3C)nc3c2CCN(c2cccc4cccc(C)c24)C3)CC1CC#N,IC50,second compound 0.0316 µM,< 0.316 nM
same,IC50,second compound 0.1 µM,< 0.316 nM
same,IC50,second compound 0.316 µM,< 0.316 nM
same,IC50,second compound 1 µM,< 0.316 nM
same,IC50,second compound 3.16 µM,< 0.316 nM
same,"viability, T/C",[1],39.3%
same,"viability, T/C",[2],40.4%
same,"viability, T/C",[3],41.9%
same,"viability, T/C",[4],29.8%
same,"viability, T/C",[5],30.4%
same,"viability, T/C",[26],23.5%
same,"viability, T/C",[6],38.1%
same,"viability, T/C",[7],32%
same,"viability, T/C",[8],26.5%
same,"viability, T/C",[9],34.5%
same,"viability, T/C",[10],25.8%
same,"viability, T/C",[27],18.5%
same,"viability, T/C",[11],24.8%
same,"viability, T/C",[12],28.8%
same,"viability, T/C",[13],34.4%
same,"viability, T/C",[14],30.4%
same,"viability, T/C",[15],32.1%
same,"viability, T/C",[28],20.1%
same,"viability, T/C",[16],29.3%
same,"viability, T/C",[17],32.6%
same,"viability, T/C",[18],25.1%
same,"viability, T/C",[19],22.2%
same,"viability, T/C",[20],21.2%
same,"viability, T/C",[29],19%
same,"viability, T/C",[21],26.5%
same,"viability, T/C",[22],10.8%
same,"viability, T/C",[23],15.7%
same,"viability, T/C",[24],6.55%
same,"viability, T/C",[25],10.2%
same,"viability, T/C",[30],11.3%
COC(=O)c1ccc2c(C(=Nc3ccc(N(C)C(=O)CN4CCN(C)CC4)cc3)c3ccccc3)c(O)[nH]c2c1 + C=CC(=O)N1CCN(c2nc(OCC3CCCN3C)nc3c2CCN(c2cccc4cccc(C)c24)C3)CC1CC#N,IC50,second compound 0.0316 µM,< 31.6 nM
same,IC50,second compound 0.1 µM,< 31.6 nM
same,IC50,second compound 0.316 µM,< 31.6 nM
same,IC50,second compound 1 µM,< 31.6 nM
same,IC50,second compound 3.16 µM,< 31.6 nM
same,"viability, T/C",[5],23.7%
same,"viability, T/C",[26],23.2%
same,"viability, T/C",[31],21.9%
same,"viability, T/C",[32],30.4%
same,"viability, T/C",[33],26.8%
same,"viability, T/C",[34],31.9%
same,"viability, T/C",[10],21.6%
same,"viability, T/C",[27],20.4%
same,"viability, T/C",[35],23.4%
same,"viability, T/C",[36],27.4%
same,"viability, T/C",[37],26.1%
same,"viability, T/C",[38],27%
same,"viability, T/C",[15],23.2%
same,"viability, T/C",[28],21.1%
same,"viability, T/C",[39],22.7%
same,"viability, T/C",[40],27.8%
same,"viability, T/C",[41],27.7%
same,"viability, T/C",[42],28.3%
same,"viability, T/C",[20],26.6%
same,"viability, T/C",[29],26.3%
same,"viability, T/C",[43],27.6%
same,"viability, T/C",[44],28.8%
same,"viability, T/C",[45],23.9%
same,"viability, T/C",[46],23.4%
same,"viability, T/C",[25],17.9%
same,"viability, T/C",[30],29.2%
same,"viability, T/C",[47],13.2%
same,"viability, T/C",[48],0.34%
same,"viability, T/C",[49],0.12%
same,"viability, T/C",[50],0.93%
COc1cc(Nc2ncc3c(n2)-c2ccc(Cl)cc2C(c2c(F)cccc2OC)=NC3)ccc1C(=O)O + C=CC(=O)N1CCN(c2nc(OCC3CCCN3C)nc3c2CCN(c2cccc4cccc(C)c24)C3)CC1CC#N,IC50,second compound 0.0316 µM,< 31.6 nM
same,IC50,second compound 0.1 µM,< 31.6 nM
same,IC50,second compound 0.316 µM,< 31.6 nM
same,IC50,second compound 1 µM,< 31.6 nM
same,IC50,second compound 3.16 µM,< 31.6 nM
same,"viability, T/C",[5],32.8%
same,"viability, T/C",[26],20.1%
same,"viability, T/C",[31],20.5%
same,"viability, T/C",[32],20.2%
same,"viability, T/C",[33],18.7%
same,"viability, T/C",[34],16.3%
same,"viability, T/C",[10],25.7%
same,"viability, T/C",[27],22.9%
same,"viability, T/C",[35],17.6%
same,"viability, T/C",[36],19.2%
same,"viability, T/C",[37],21.8%
same,"viability, T/C",[38],15%
same,"viability, T/C",[15],29.2%
same,"viability, T/C",[28],22.6%
same,"viability, T/C",[39],20.3%
same,"viability, T/C",[40],19.7%
same,"viability, T/C",[41],23.3%
same,"viability, T/C",[42],16.9%
same,"viability, T/C",[20],27.8%
same,"viability, T/C",[29],26.4%
same,"viability, T/C",[43],24.6%
same,"viability, T/C",[44],25.4%
same,"viability, T/C",[45],26.7%
same,"viability, T/C",[46],22.9%
same,"viability, T/C",[25],28.7%
same,"viability, T/C",[30],30.4%
same,"viability, T/C",[47],30.3%
same,"viability, T/C",[48],23.7%
same,"viability, T/C",[49],17%
same,"viability, T/C",[50],1.09%
O=C(c1cc(Cc2n[nH]c(=O)c3ccccc23)ccc1F)N1CCN(C(=O)C2CC2)CC1 + C=CC(=O)N1CCN(c2nc(OCC3CCCN3C)nc3c2CCN(c2cccc4cccc(C)c24)C3)CC1CC#N,IC50,second compound 0.0316 µM,< 31.6 nM
same,IC50,second compound 0.1 µM,< 31.6 nM
same,IC50,second compound 0.316 µM,< 31.6 nM
same,IC50,second compound 1 µM,< 31.6 nM
same,IC50,second compound 3.16 µM,< 31.6 nM
same,"viability, T/C",[5],33.1%
same,"viability, T/C",[26],28.8%
same,"viability, T/C",[31],89.6%
same,"viability, T/C",[32],26%
same,"viability, T/C",[33],30%
same,"viability, T/C",[34],30.3%
same,"viability, T/C",[10],21.3%
same,"viability, T/C",[27],22.5%
same,"viability, T/C",[35],23.6%
same,"viability, T/C",[36],24.1%
same,"viability, T/C",[37],27.9%
same,"viability, T/C",[38],34.4%
same,"viability, T/C",[15],25.6%
same,"viability, T/C",[28],26%
same,"viability, T/C",[39],24.1%
same,"viability, T/C",[40],24.4%
same,"viability, T/C",[41],23.6%
same,"viability, T/C",[42],29.6%
same,"viability, T/C",[20],27.9%
same,"viability, T/C",[29],28.3%
same,"viability, T/C",[43],26%
same,"viability, T/C",[44],25.6%
same,"viability, T/C",[45],25.8%
same,"viability, T/C",[46],30.9%
same,"viability, T/C",[25],30.1%
same,"viability, T/C",[30],29.2%
same,"viability, T/C",[47],33.1%
same,"viability, T/C",[48],30.4%
same,"viability, T/C",[49],35.4%
same,"viability, T/C",[50],24.3%
